Values quoted from earlier work, collected in paper PMC9788431, “Combination of Docking-Based and Pharmacophore-Based Virtual Screening Identifies Novel Agonists That Target the Urotensin Receptor” (Molecules, 2022).
Where “and” joins values, the source holds several entries; their conditions need not be identical. Identical values can stand only once. Non-standard residues stand in square brackets, D forms with d. Residues, ends and D or L forms follow the SMILES beside them.

Target: T1, UT receptor (Homo sapiens, UniProt Q9UKP6)
T1 construct: SNAP-tag; expressed in transfected cells; host or cells: 293A8 (HEK293A stably transfected with the UT receptor); inferred, the calcium-assay paragraph names no cells
T1 sequence (Q9UKP6 1-389): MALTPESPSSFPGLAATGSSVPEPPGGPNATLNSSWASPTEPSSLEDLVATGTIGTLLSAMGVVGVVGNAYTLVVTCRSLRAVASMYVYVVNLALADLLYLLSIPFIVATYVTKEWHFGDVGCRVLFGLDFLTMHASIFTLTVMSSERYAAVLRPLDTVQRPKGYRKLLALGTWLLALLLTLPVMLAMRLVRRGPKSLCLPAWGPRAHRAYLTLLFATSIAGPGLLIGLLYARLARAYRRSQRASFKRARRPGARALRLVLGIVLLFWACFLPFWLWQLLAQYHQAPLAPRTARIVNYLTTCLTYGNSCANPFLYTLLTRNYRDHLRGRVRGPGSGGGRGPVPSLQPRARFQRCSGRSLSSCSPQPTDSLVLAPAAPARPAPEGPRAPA
Details: agonist; Table S1 benchmarking ligands; ref ChEMBL database and others; cited from earlier work

In order of falling EC50:
1. Cc1ccc(C(CCN(C)C)NC(=O)c2cccc(-c3ccccc3)c2)cc1 (stereo not shown) [CHEMBL572392]  813 nM
2. Cc1ccc(C(CCN(C)C)NC(=O)c2ccc(-c3ccc4ccccc4c3)cc2)cc1 (stereo not shown) [CHEMBL575630]  813 nM
3. CO[C@@H](C(=O)N[C@@H](CCN(C)C)c1ccc2ccccc2c1)c1ccccc1 [CHEMBL572454]  741 nM
4. O=C(NC(CCN1CCCCC1)c1ccc(Cl)cc1)c1ccc(-c2ccccc2)cc1 (stereo not shown) [CHEMBL572467]  661 nM
5. COc1ccc(-c2cccc(C(=O)NC(CCN(C)C)c3ccc4ccccc4c3)c2)cc1 (stereo not shown) [CHEMBL573574]  646 nM
6. Cc1ccc(C(CCN(C)C)NC(=O)c2cccc(-c3ccc(Cl)cc3)c2)cc1 (stereo not shown) [CHEMBL574731]  646 nM
7. CN(C)CCC(NC(=O)CCc1ccccc1)c1ccc2ccccc2c1 (stereo not shown) [CHEMBL229709]  603 nM
8. CN(C)CCC(NC(=O)/C=C/c1ccccc1)c1ccc2ccccc2c1 (stereo not shown) [CHEMBL387694]  589 nM
9. CN(C)CCC(NC(=O)Cc1ccc(C(F)(F)F)cc1)c1ccc2ccccc2c1 (stereo not shown) [CHEMBL390792]  575 nM
10. CN(C)CCC(NC(=O)c1cccc(-c2ccccc2)c1)c1ccc2ccccc2c1 (stereo not shown) [CHEMBL575819]  537 nM
11. CN(C)CCC(OC(=O)Nc1ccc2ccccc2c1)c1ccc(Cl)cc1 (stereo not shown) [CHEMBL203937]  525 nM
12. CN(C)CCC(OC(=O)c1ccc(-c2ccccc2)cc1)c1ccc(Cl)cc1 (stereo not shown) [CHEMBL205991]  525 nM
13. CN(C)CCC(NC(=O)c1ccc(-c2ccc3ccccc3c2)cc1)c1ccc2ccccc2c1 (stereo not shown) [CHEMBL578853]  525 nM
14. COc1ccc(/C=C/C(=O)NC(CCN(C)C)c2ccc(Cl)cc2)cc1 (stereo not shown) [CHEMBL387661]  513 nM
15. Cc1cc(C)c(C(=O)OC(CCN(C)C)c2ccc(Cl)cc2)cc1C (stereo not shown) [CHEMBL206832]  468 nM
16. CN(C)CCC(NC(=O)C#Cc1ccccc1)c1ccc2ccccc2c1 (stereo not shown) [CHEMBL229764]  457 nM
17. CN(C)CC[C@@H](NC(=O)c1ccc(-c2ccc(Cl)cc2)cc1)c1ccc2ccccc2c1 [CHEMBL573640]  457 nM
18. Cc1ccc(C(CCN(C)C)NC(=O)/C=C/c2ccc(C(F)(F)F)cc2)cc1 (stereo not shown) [CHEMBL229923]  437 nM
19. CN(C)CCC(NC(=O)c1cccc(-c2ccc(Cl)cc2)c1)c1ccc(Cl)cc1 (stereo not shown) [CHEMBL582835]  437 nM
20. CN(C)CCC(NC(=O)/C=C/c1ccccc1)c1ccc(Cl)cc1 (stereo not shown) [CHEMBL374817]  427 nM
21. CN(C)CC[C@H](NC(=O)c1ccc2ccccc2c1)c1ccc(Cl)cc1 [CHEMBL207783]  407 nM
22. CN(C)CCC(NC(=O)C#Cc1ccccc1)c1ccc(Cl)cc1 (stereo not shown) [CHEMBL228471]  398 nM
23. COc1ccc(/C=C/C(=O)NC(CCN(C)C)c2ccc3ccccc3c2)cc1 (stereo not shown) [CHEMBL229714]  380 nM
24. CN(C)CCC(NC(=O)CCc1ccc(C(F)(F)F)cc1)c1ccc2ccccc2c1 (stereo not shown) [CHEMBL229710]  372 nM
25. CN(C)CCC(NC(=O)c1cccc(-c2ccc3ccccc3c2)c1)c1ccc(Cl)cc1 (stereo not shown) [CHEMBL573575]  363 nM
26. COc1ccc(-c2ccc(C(=O)NC(CCN(C)C)c3ccc(C)cc3)cc2)cc1 (stereo not shown) [CHEMBL575629]  347 nM
27. CN(C)CCCC(NC(=O)c1ccc(-c2ccccc2)cc1)c1ccc(Cl)cc1 (stereo not shown) [CHEMBL576746]  316 nM
28. CN(C)CCC(NC(=O)c1ccc(-c2ccc3ccccc3c2)cc1)c1ccc(Cl)cc1 (stereo not shown) [CHEMBL572391]  309 nM
29. CN(C)CCC(NC(=O)Nc1ccc2ccccc2c1)c1ccc(Cl)cc1 (stereo not shown) [CHEMBL206551]  288 nM
30. CN(C)CCC(NC(=O)Nc1ccc(C(C)(C)C)cc1)c1ccc(Cl)cc1 (stereo not shown) [CHEMBL205681]  275 nM
31. CN(C)CCC(OC(=O)Nc1ccc(C(F)(F)F)cc1)c1ccc(Cl)cc1 (stereo not shown) [CHEMBL203051]  251 nM
32. Cc1ccc(C(CCN(C)C)NC(=O)c2ccc(-c3ccccc3)cc2)cc1 (stereo not shown) [CHEMBL572398]  200 nM
33. CN(C)CCC(OC(=O)Nc1ccc(Oc2ccccc2)cc1)c1ccc(Cl)cc1 (stereo not shown) [CHEMBL383326]  191 nM
34. CN(C)CCC(NC(=O)Nc1ccc(-c2ccccc2)cc1)c1ccc(Cl)cc1 (stereo not shown) [CHEMBL206811]  145 nM
35. CN(C)CCC(NC(=O)/C=C/c1ccc(C(F)(F)F)cc1)c1ccc2ccccc2c1 (stereo not shown) [CHEMBL229713]  135 nM
36. Cc1cc2c(cc1C)C(=O)OC(CCN(C)C)(c1ccc(Cl)cc1)C2 (stereo not shown) [CHEMBL380346]  135 nM
37. CN(C)CCC(NC(=O)/C=C/c1ccc(C(F)(F)F)cc1)c1ccc(Cl)cc1 (stereo not shown) [CHEMBL228470]  129 nM
38. Cc1ccc(C(CCN(C)C)NC(=O)c2ccc(-c3ccc(Cl)cc3)cc2)cc1 (stereo not shown) [CHEMBL572883]  126 nM
39. CN(C)CCC(NC(=O)c1ccc(-c2ccccc2)cc1)c1ccc2ccccc2c1 (stereo not shown) [CHEMBL574527]  120 nM
40. CN(C)CCC(NC(=O)Nc1ccc(C(F)(F)F)cc1)c1ccc(Cl)cc1 (stereo not shown) [CHEMBL425592]  117 nM
41. CN(C)CCC(NC(=O)Nc1ccc(Oc2ccccc2)cc1)c1ccc(Cl)cc1 (stereo not shown) [CHEMBL383698]  110 nM
42. COc1ccc(-c2ccc(C(=O)NC(CCN(C)C)c3ccc4ccccc4c3)cc2)cc1 (stereo not shown) [CHEMBL578654]  105 nM
43. CN(C)CCC(NC(=O)c1ccc(C(F)(F)F)cc1)c1ccc(Cl)cc1 (stereo not shown) [CHEMBL204988]  77.6 nM
44. CN(C)CCC(NC(=O)c1ccc(-c2ccccc2)cc1)c1ccc(Cl)cc1 (stereo not shown) [CHEMBL583981]  77.6 nM
45. CN(C)CCC(NC(=O)c1ccc(-c2ccc(Cl)cc2)cc1)c1ccc(Cl)cc1 (stereo not shown) [CHEMBL572882]  75.9 nM
46. COc1ccc(-c2ccc(C(=O)NC(CCN(C)C)c3ccc(Cl)cc3)cc2)cc1 (stereo not shown) [CHEMBL573569]  74.1 nM
47. CN(C)CCC(NC(=O)c1ccc(Oc2ccccc2)cc1)c1ccc(Cl)cc1 (stereo not shown) [CHEMBL203626]  66.1 nM
48. CC(C)[C@H](NC(=O)[C@H](CS)NC(=O)[C@H](Cc1ccc(O)cc1)NC(=O)[C@H](CCCCN)NC(=O)[C@H](Cc1c[nH]c2ccccc12)NC(=O)[C@H](CS)NC(=O)[C@H](CC(=O)O)NC(=O)[C@H]1CCCN1C(=O)[C@@H](NC(=O)[C@@H](N)CCC(=O)O)[C@@H](C)O)C(=O)O [CHEMBL412753] (H-ET[dP]DCWKYCV-OH)  53 nM
49. CN(C)CCC(NC(=O)c1ccc(-c2ccc(Cl)cc2)cc1)c1ccc2ccccc2c1 (stereo not shown) [CHEMBL572439]  43.6 nM
50. CN(C)CC[C@H](NC(=O)c1ccc(-c2ccccc2)cc1)c1ccc(Cl)cc1 [CHEMBL207823]  32.4 nM
51. CN(C)CC[C@H](NC(=O)c1ccc(-c2ccc(Cl)cc2)cc1)c1ccc2ccccc2c1 [CHEMBL573392]  22.9 nM
52. NCCCC[C@@H]1NC(=O)[C@H](Cc2c[nH]c3ccccc23)NC(=O)[C@H](CO)NC(=O)CNC(=O)[C@@H]2CCCN2C(=O)[C@H](Cc2ccc(O)cc2)NC1=O [CHEMBL593612] (cyclo(GSWKYP))  8.51 nM
53. CC(C)[C@H](NC(=O)[C@H](CS)NC(=O)[C@H](Cc1ccc(O)cc1)NC(=O)[C@H](CCCCN)NC(=O)[C@@H](Cc1c[nH]c2ccccc12)NC(=O)[C@H](Cc1ccccc1)NC(=O)[C@H](CS)NC(=O)[C@H](CC(=O)O)NC(=O)[C@H]1CCCN1C(=O)[C@@H](NC(=O)[C@@H](N)CCC(=O)O)[C@@H](C)O)C(=O)O [CHEMBL385962]  3.8 nM
54. CC(C)[C@H](NC(=O)[C@H](CS)NC(=O)[C@H](Cc1ccc(O)cc1)NC(=O)[C@H](CCCCN)NC(=O)[C@H](Cc1c[nH]c2ccccc12)NC(=O)[C@H](Cc1ccccc1)NC(=O)[C@H](CS)NC(=O)[C@H](CC(=O)O)NC(=O)[C@H]1CCCN1)C(=O)O [CHEMBL216349] (H-[dP]DCFWKYCV-OH)  3.6 nM
55. CC(C)[C@H](NC(=O)[C@H](CS)NC(=O)[C@H](Cc1ccc(O)cc1)NC(=O)[C@H](CCCCN)NC(=O)[C@H](Cc1c[nH]c2ccccc12)NC(=O)[C@H](Cc1ccccc1)NC(=O)[C@H](CS)NC(=O)[C@@H](N)CC(=O)O)C(=O)O [CHEMBL414256] (H-DCFWKYCV-OH)  3 nM
56. CC(C)[C@H](NC(=O)[C@H](CS)NC(=O)[C@H](Cc1ccc(O)cc1)NC(=O)[C@H](CCCCN)NC(=O)[C@H](Cc1c[nH]c2ccccc12)NC(=O)[C@H](Cc1ccccc1)NC(=O)[C@H](CS)NC(=O)[C@H](CC(=O)O)NC(=O)[C@H]1CCCN1C(=O)[C@@H](NC(=O)[C@@H](N)CCC(=O)O)[C@@H](C)O)C(=O)O [CHEMBL408106]  2.5 nM
57. CC(C)[C@H](NC(=O)[C@H](CS)NC(=O)[C@H](Cc1ccc(O)cc1)NC(=O)[C@H](CCCCN)NC(=O)[C@H](Cc1c[nH]c2ccccc12)NC(=O)[C@H](Cc1ccccc1)NC(=O)[C@H](CS)NC(=O)[C@H](CC(=O)O)NC(=O)[C@H]1CCCN1C(=O)[C@@H](N)[C@@H](C)O)C(=O)O [CHEMBL427632] (H-T[dP]DCFWKYCV-OH)  2.4 nM
58. NCCCC[C@H](NC(=O)[C@H](Cc1c[nH]c2ccccc12)NC(=O)[C@H](Cc1ccccc1)NC(=O)[C@@H](N)CS)C(=O)N[C@@H](Cc1ccc(O)cc1)C(=O)N[C@@H](CS)C(N)=O [CHEMBL298803] (H-CFWKYC-NH2)  2.3 nM
59. CC(C)[C@H](NC(=O)[C@H](CS)NC(=O)[C@H](Cc1ccc(O)cc1)NC(=O)[C@H](CCCCN)NC(=O)[C@H](Cc1c[nH]c2ccccc12)NC(=O)[C@H](Cc1ccccc1)NC(=O)[C@@H](N)CS)C(=O)O [CHEMBL53181] (H-CFWKYCV-OH)  1.8 nM
60. C[C@@H](O)[C@H](NC(=O)[C@@H](N)CCC(=O)O)C(=O)N1CCC[C@@H]1C(=O)N[C@@H](CC(=O)O)C(=O)N[C@@H](CS)C(=O)N[C@@H](Cc1ccccc1)C(=O)N[C@@H](Cc1c[nH]c2ccccc12)C(=O)N[C@@H](CCCCN)C(=O)N[C@@H](Cc1ccc(O)cc1)C(=O)N[C@@H](CS)C(=O)O [CHEMBL385616] (H-ET[dP]DCFWKYC-OH)  1.8 nM

In the case of `CN(C)CCC1(c2ccc(Cl)cc2)Cc2ccccc2C(=O)O1` (stereo not shown) [CHEMBL535141], the EC50 is given as 251 nM and 316 nM.
